Patent US20230357261A1, “ARYL HYDROCARBON RECEPTOR LIGANDS AND THEIR ANALOGUES FOR THE PREVENTION AND TREATMENT OF INFLAMMATORY DISORDERS” (The Johns Hopkins University, priority 2020, published 2023)

Tests used:
AHR [1] = experiment: AHR activation in human ileal explant culture (Cyp1a1 qRT-PCR); assay type: cell-based; settings: 200 μM I3C or 20 μM A18, 15 minutes pre-treatment then 6 hours
Source text: De-identified human ileal samples were collected via waiver of consent from the Office of Human Subjects Research Review Boards at Johns Hopkins University (IRB00094036), during surgery for NEC or at the time of stoma closure. For RNA isolation and qRT-PCR analysis, fresh samples were snapfrozen in liquid nitrogen immediately. For human explant culture, fresh ileum samples from NEC patients or patient undergoing stoma re-anastomosis were washed with sterile phosphate-buffered saline containing gentamycin (5 μg/mL), minced into 2- to 4-mm diameter pieces, and then cultured in Dulbecco's modified Eagle growth medium supplemented with 10% fetal bovine serum, 4 μg/mL human recombinant insulin and 100 μg/mL Primocin. […]
Total RNA was isolated using the RNeasy mini kit (Qiagen) and complementary DNA was synthesized from 0.5 μg RNA using QuantiTect Reverse Transcription kit (Qiagen) following the manufacturer's protocols. The mRNA quantification was performed on the Bio-Rad CFX96 Real-Time System (Bio-Rad) using iTaq™ universal SYBR® Green supermix (Bio-Rad) and the primers listed in Table 1. […] For microRNA isolation, freshly harvested, snap-frozen ileal tissue was subjected to total RNA isolation using the RNeasy plus universal mini kit (Qiagen) and miRNA was quantified using miScript PCR starter kit (Qiagen) following the manufacturer's protocols. […]

TLR4 [2] = experiment: TLR4 signaling and Tlr4 expression in newborn mouse ileum in vivo (endotoxemia model, LPS)
Method: Endotoxemia was induced in neonatal mouse pups (p11) by administering 5 mg/kg lipopolysaccharides (LPS) via intraperitoneal injection, and ileal samples were harvested 6 hours after LPS treatments. […] I3C and A18 were administered to the pregnant mother daily until the offspring were studied further for experimental NEC or endotoxemia as above. […] The mRNA quantification was performed on the Bio-Rad CFX96 Real-Time System (Bio-Rad) using iTaqTM universal SYBR® Green supermix (Bio-Rad) and the primers listed in Table 1. The relative mRNA expression levels were normalized against the expression of the housekeeping gene ribosomal protein lateral stalk subunit P0 (Rplp0). For microRNA isolation, freshly harvested, snap-frozen ileal tissue was subjected to total RNA isolation using the RNeasy plus universal mini kit (Qiagen) and miRNA was quantified using miScript PCR starter kit (Qiagen) following the manufacturer's protocols. The relative miRNA expression levels were normalized against the expression of housekeeping miRNA miR-191.

AHR [3] = experiment: AHR activation in IEC-6 enterocytes (Cyp1a1 expression); assay type: cell-based, rat; settings: A18, 6 hours
Method: The intestinal epithelial cells line IEC-6 (ATCC CRL-1592) was stably transduced with lentiviral particles containing Cignal Lenti XRE Reporter (luc) (Qiagen). Cells were treated serially with individual chemicals contained within the Johns Hopkins Drug Library (JHDL), which contains a series of FDA-approved drugs, Chong et al., 2006, (kindly provided by Dr. Jun O. Liu, Johns Hopkins University) at 10 μM for 24 hours, and the luciferase activity was quantified using the SpectraMax M3 (Molecular Devices).
(§1) Total RNA was isolated using the RNeasy mini kit (Qiagen) and complementary DNA was synthesized from 0.5 μg RNA using QuantiTect Reverse Transcription kit (Qiagen) following the manufacturer's protocols. The mRNA quantification was performed on the Bio-Rad CFX96 Real-Time System (Bio-Rad) using iTaq™ universal SYBR® Green supermix (Bio-Rad) and the primers listed in Table 1. The relative mRNA expression levels were normalized against the expression of the housekeeping gene ribosomal protein lateral stalk subunit P0 (Rplp0). For microRNA isolation, freshly harvested, snap-frozen ileal tissue was subjected to total RNA isolation using the RNeasy plus universal mini kit (Qiagen) and miRNA was quantified using miScript PCR starter kit (Qiagen) following the manufacturer's protocols. The relative miRNA expression levels were normalized against the expression of housekeeping miRNA miR-191.

TLR4 [4] = experiment: TLR4 signaling and expression in human ileal explant culture (LPS); assay type: cell-based
Source text: De-identified human ileal samples were collected via waiver of consent from the Office of Human Subjects Research Review Boards at Johns Hopkins University (IRB00094036), during surgery for NEC or at the time of stoma closure. For RNA isolation and qRT-PCR analysis, fresh samples were snapfrozen in liquid nitrogen immediately. For human explant culture, fresh ileum samples from NEC patients or patient undergoing stoma re-anastomosis were washed with sterile phosphate-buffered saline containing gentamycin (5 μg/mL), minced into 2- to 4-mm diameter pieces, and then cultured in Dulbecco's modified Eagle growth medium supplemented with 10% fetal bovine serum, 4 μg/mL human recombinant insulin and 100 μg/mL Primocin. Human ilea explant cultures were then pre-treated with 200 μM I3C or 20 μM A18 for 15 minutes, and then with 50 μg/mL LPS for 6 hours, then processed for total RNA isolation followed by qRT-PCR.
as §1

[5] = cited from earlier work
mouse NEC model = experiment: Experimental NEC in newborn mice (Example 1); assay type: in vivo
AHR [6] = experiment: AHR activation in mouse intestine in vivo (Cyp1a1 expression by qRT-PCR); settings: for Cyp1a1 expression in the intestinal epithelium: fed I3C 25 mg/kg/day or A18 300 mg/kg/day
Method: Hits were validated for activation of AHR signaling by oral gavage into neonatal C57/B16 mice (p11), and measuring the expression of the AHR activation reporter Cyp1a1 by qRT-PCR in the intestinal mucosa 24 hours later. The lead compound from these studies is herein labelled “A18”. Additionally, the mice were subjected to hypoxia (5% 02-95% N2) for 10 min in a hypoxia chamber (Billups-Rothenberg) twice daily for 4 days. […] To test the protective effect of breast milk on AHR signaling a NEC, human breast milk (Innovative Research) was supplemented to the formula at the final concentration of 5%. Endotoxemia was induced in neonatal mouse pups (p11) by administering 5 mg/kg lipopolysaccharides (LPS) via intraperitoneal injection, and ileal samples were harvested 6 hours after LPS treatments. […] I3C and A18 were administered to the pregnant mother daily until the offspring were studied further for experimental NEC or endotoxemia as above. […] The mRNA quantification was performed on the Bio-Rad CFX96 Real-Time System (Bio-Rad) using iTaqTM universal SYBR® Green supermix (Bio-Rad) and the primers listed in Table 1. The relative mRNA expression levels were normalized against the expression of the housekeeping gene ribosomal protein lateral stalk subunit P0 (Rplp0). For microRNA isolation, freshly harvested, snap-frozen ileal tissue was subjected to total RNA isolation using the RNeasy plus universal mini kit (Qiagen) and miRNA was quantified using miScript PCR starter kit (Qiagen) following the manufacturer's protocols. The relative miRNA expression levels were normalized against the expression of housekeeping miRNA miR-191.

[7] = A18 administered during pregnancy
[8] = wild-type newborn mice, A18 300 mg/kg body weight/day for 4 days, oral

Cyp1a1 expression in human intestinal explant cultures (AHR [1]): significantly induced Cyp1a1 expression
Cyp1a1 expression in IEC-6 enterocytes (AHR [3]): induced the expression of Cyp1a1
Cyp1a1 expression in the offspring pup intestine (AHR [6]; A18 administered during pregnancy, 300 mg/kg body weight/day): induced the expression of Cyp1a1
Cyp1a1 expression in the intestinal epithelium (AHR [6]; Ahr^−/− newborn mice): not
Cyp1a1 expression in the intestinal epithelium (AHR [6]; wild-type newborn (p11) mice): induced the expression of Cyp1a1
SMILES: Cc1c(OCC(F)(F)F)ccnc1C[S+]([O-])c1nc2ccccc2[nH]1 (centres unmarked) [A18, Lansoprazole]
Tlr4 expression in the intestinal mucosa / newborn ileum (TLR4 [2]; wild-type mice, fed I3C or A18): reduced Tlr4 expression
TLR4 (LPS)-induced 116 expression in the intestine (TLR4 [2]; wild-type newborn mice, fed A18 (300 mg/kg/day) or oral breast milk): significantly reduced TLR4-induced 116 expression
Tlr4 expression in human intestine ex vivo (TLR4 [4]; 20 μM A18, LPS 50 μg/mL for 6 hours): significantly reduced
LPS-induced Tnf-a expression in human intestinal explant cultures (TLR4 [4]; 200 μM I3C or 20 μM A18, LPS 50 μg/mL for 6 hours): significantly reduced LPS-induced Tnf-a expression
inflammation in the intestine of human resected at the time of surgery for NEC (TLR4 [4]; summary statement): dampened inflammation
bound in human plasma ([5]; human plasma): approximately 97%
plasma elimination half-life ([5]; in humans): approximately 2 h
absorption ([5]; in vivo): rapidly absorbed
metabolism by CYP3A4 and CYP2C18 ([5]; in vivo): extensively metabolized
Tlr4 expression in the neonatal gut (NEC) (mouse NEC model; [7]): reduced
Tnf-a expression in the neonatal gut (NEC) (mouse NEC model; [7]): reduced Tnf-a
histology and NEC severity (mouse NEC model; [7]): improved histology and NEC severity
NEC severity in the offspring (mouse NEC model; A18 administered during pregnancy (M-A18, 300 mg/kg body weight/day)): significantly reduced NEC severity
prevention and treatment of NEC in mouse models (mouse NEC model; summary statement): effectively prevented and treated NEC
NEC severity (mouse NEC model; wild-type mice, oral to pups during NEC induction: I3C 25 mg/kg/day, A18 300 mg/kg/day, or human breast milk 5% in formula): significantly reduced NEC severity
NEC severity score (mouse NEC model; [8]): improved NEC severity score
expression of I16 (NEC) (mouse NEC model; [8]): reduced expression of I16
histology of the terminal ileum (NEC) (mouse NEC model; [8]): improved histology
